Activity calls are given as the source filed them.
Tests used:
Chymotrypsin = Chymotrypsin (UniProt Q99895+P17538+P40313+Q6GPI1); test: Inhibition of chymotrypsin (unknown origin) using Suc-LLVY-AMC as fluorogenic substrate at 130 uM measured every 20 seconds for 10 mins by fluorescence based assay; format: protein assay; conditions: Homo sapiens
[1] = molecular target: T1, 20S proteasome (Homo sapiens) (UniProt P49721+P20618+P28074+P28062+P28065+P28072+P25786+P25787+P25788+P25789+P28066+P60900+O14818+Q8TAA3+P40306+A5LHX3+P49720+P28070+Q99436); test: Inhibition of human 20S proteasome trypsin-like activity using Ac-RLR-AMC as a fluorogenic substrate at 130 uM measured every 20 seconds for 10 mins by fluorescence based assay; format: protein-complex assay
[2] = molecular target: Cathepsin B (Homo sapiens) (UniProt P07858); test: Inhibition of human liver cathepsin B using Cbz-Arg-Arg-AMC as fluorogenic substrate at 130 uM measured every 20 seconds for 10 mins by fluorescence based assay
[3] = molecular target: Calpain-2 catalytic subunit (Homo sapiens) (UniProt P17655); test: Inhibition of m-calpain (unknown origin) using Suc-LLVY-AMC as fluorogenic substrate at 130 uM measured every 20 seconds for 10 mins by fluorescence based assay
[4] = molecular target: T1, 20S proteasome (Homo sapiens); test: Inhibition of human 20S proteasome PGPH-like activity using Cbz-LLE-AMC as a fluorogenic substrate at 130 uM measured every 20 seconds for 10 mins by fluorescence based assay; format: protein-complex assay

Measured: inhibition

Chymotrypsin, sequence (P17538 whole entry, looked up): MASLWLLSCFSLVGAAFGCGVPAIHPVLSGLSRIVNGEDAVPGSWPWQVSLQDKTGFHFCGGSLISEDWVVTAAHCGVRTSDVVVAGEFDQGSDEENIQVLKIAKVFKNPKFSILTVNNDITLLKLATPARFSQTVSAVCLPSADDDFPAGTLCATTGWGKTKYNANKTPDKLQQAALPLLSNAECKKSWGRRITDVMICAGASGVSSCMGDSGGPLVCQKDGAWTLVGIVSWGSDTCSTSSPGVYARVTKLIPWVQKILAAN
Chymotrypsin, sequence (P40313 whole entry, looked up): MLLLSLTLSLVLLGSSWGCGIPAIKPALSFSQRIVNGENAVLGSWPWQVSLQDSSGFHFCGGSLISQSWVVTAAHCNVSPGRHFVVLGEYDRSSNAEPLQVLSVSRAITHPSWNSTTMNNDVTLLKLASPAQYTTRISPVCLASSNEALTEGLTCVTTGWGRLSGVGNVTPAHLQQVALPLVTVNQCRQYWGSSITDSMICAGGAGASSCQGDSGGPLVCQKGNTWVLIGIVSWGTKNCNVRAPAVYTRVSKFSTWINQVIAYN
Chymotrypsin, sequence (Q6GPI1 whole entry, looked up): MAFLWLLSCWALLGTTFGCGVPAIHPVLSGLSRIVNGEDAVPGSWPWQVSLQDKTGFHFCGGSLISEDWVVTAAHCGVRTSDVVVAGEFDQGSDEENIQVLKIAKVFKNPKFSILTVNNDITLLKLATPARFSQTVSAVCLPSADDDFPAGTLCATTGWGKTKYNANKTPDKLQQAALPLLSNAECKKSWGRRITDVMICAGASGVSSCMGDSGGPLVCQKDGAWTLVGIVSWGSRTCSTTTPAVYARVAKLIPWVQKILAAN
Chymotrypsin, sequence (Q99895 whole entry, looked up): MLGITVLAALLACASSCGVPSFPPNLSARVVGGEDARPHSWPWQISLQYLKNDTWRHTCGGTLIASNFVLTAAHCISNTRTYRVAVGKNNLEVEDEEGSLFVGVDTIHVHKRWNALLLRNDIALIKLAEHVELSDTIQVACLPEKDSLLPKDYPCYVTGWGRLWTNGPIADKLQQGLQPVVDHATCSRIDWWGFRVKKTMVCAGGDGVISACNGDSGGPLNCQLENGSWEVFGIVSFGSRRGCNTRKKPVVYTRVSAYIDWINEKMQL
Calpain-2 catalytic subunit (Homo sapiens), sequence (P17655 whole entry, looked up): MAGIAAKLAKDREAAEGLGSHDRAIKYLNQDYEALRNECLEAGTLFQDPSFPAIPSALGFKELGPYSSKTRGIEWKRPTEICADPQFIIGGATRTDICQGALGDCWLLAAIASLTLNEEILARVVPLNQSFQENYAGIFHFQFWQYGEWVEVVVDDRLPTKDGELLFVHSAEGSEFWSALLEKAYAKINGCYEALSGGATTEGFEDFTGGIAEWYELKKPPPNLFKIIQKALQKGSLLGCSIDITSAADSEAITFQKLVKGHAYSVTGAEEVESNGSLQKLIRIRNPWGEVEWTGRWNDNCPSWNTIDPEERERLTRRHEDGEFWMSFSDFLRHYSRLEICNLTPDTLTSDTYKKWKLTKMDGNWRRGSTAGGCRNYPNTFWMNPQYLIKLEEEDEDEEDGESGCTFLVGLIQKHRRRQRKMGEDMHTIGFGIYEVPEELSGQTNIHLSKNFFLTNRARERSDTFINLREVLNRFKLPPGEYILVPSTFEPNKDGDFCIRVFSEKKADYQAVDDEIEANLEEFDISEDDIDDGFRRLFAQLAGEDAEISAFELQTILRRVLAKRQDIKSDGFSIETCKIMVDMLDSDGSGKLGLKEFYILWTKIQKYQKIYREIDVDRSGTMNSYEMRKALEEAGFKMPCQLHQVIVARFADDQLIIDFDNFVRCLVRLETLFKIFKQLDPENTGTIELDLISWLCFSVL

CC(C)C[C@@H](C=O)NC(=O)[C@@H]1Cc2ccc(cc2)Oc2cc(ccc2[N+](=O)[O-])C[C@H](NC(=O)OCc2ccccc2)C(=O)N[C@@H](CC(C)C)C(=O)N1
inactive: Chymotrypsin | [1]

CC(C)C[C@H](NC(=O)[C@H](CCc1ccccc1)NC(=O)CN1CCOCC1)C(=O)N[C@@H](Cc1ccccc1)C(=O)N[C@@H](CC(C)C)C(=O)[C@@]1(C)CO1
not listed: [4]
inactive: all other assays above

CC(=O)N[C@H]1Cc2ccc([N+](=O)[O-])c(c2)Oc2ccc3c(c2)C(C[C@@H](C(=O)N[C@@H](CC(C)C)C(=O)[C@@]2(C)CO2)NC(=O)[C@H](CC(C)C)NC1=O)C(=O)N3 (some centres undefined)
not listed: [4]
inactive: all other assays above

CC(=O)N[C@H]1Cc2ccc([N+](=O)[O-])c(c2)Oc2ccc(cc2)C[C@@H](C(=O)N[C@@H](CC(C)C)C(=O)[C@@]2(C)CO2)NC(=O)[C@H](CC(C)C)NC1=O
inactive: all assays above

CC(=O)N[C@@H](Cc1ccc([N+](=O)[O-])c(F)c1)C(=O)N[C@@H](CC(C)C)C(=O)N[C@@H](CC1C(=O)Nc2ccc(O)cc21)C(=O)N[C@@H](CC(C)C)C(=O)[C@@]1(C)CO1 (some centres undefined)
inactive: all assays above

CC(=O)N[C@H]1Cc2ccc([N+](=O)[O-])c(c2)Oc2ccc3c(c2)C(C[C@@H](C(=O)N[C@@H](CC(C)C)C(N)=O)NC(=O)[C@H](CC(C)C)NC1=O)C(=O)N3 (some centres undefined)
not listed: [1]
inactive: all other assays above

CC(=O)N[C@H]1Cc2ccc([N+](=O)[O-])c(c2)Oc2ccc(cc2)CC[C@@H](C(=O)N[C@@H](CC(C)C)C(=O)[C@@]2(C)CO2)NC(=O)[C@H](CC(C)C)NC1=O
inactive: all assays above

— ChEMBL document CHEMBL5335865, “Macrocyclic Oxindole Peptide Epoxyketones-A Comparative Study of Macrocyclic Inhibitors of the 20S Proteasome” (ACS Med Chem Lett, 2024)
